Common to all, as to assay type: cell-based
In one test the test system is Streptococcus mutans. The test can be described thus: Streptococcus mutans growth inhibition, colony count on blood agar plate vs control. The conditions noted are these: overnight culture 37° C, colony count vs negative control, read-out: IC50 against Streptococcus mutans. As to the method: (§1) The inventor verified the test by dissolving 1 mg of omega-3 fatty acids (EPA, DHA, and ALA) and omega-6 fatty acids (ARA, GLA), omega-3 fatty acid methyl esters (EPA-ME, DHA-ME, ALA-ME), and omega-3 fatty acid ethyl esters (EPA-EE, DHA-EE, ALA-EE) in 1000 μl ethanol solution; took 1 (final concentration 1 μg/ml) and 5 μl (final concentration 5 μg/ml) solution by adding 100 μl of Streptococcus mutans in the culture medium cultured overnight at 37° C. After the overnight culture, the medium was diluted 1:10000 times, 5 μl of the diluted culture was applied to blood agar plate and cultured overnight. Calculated the number of colonies on the plates and compared with the control group to obtain the percentage of inhibition.

The subject of the next test is Candida albicans. The test can be described thus: Candida albicans growth inhibition. Particulars: final concentration 25 μg/ml. As to the method: [The procedure below names another organism; the source lists this organism under the same test.] as §1
Test [1] relates to Actinobacillus actinomycetemcomitans. Description: Actinobacillus actinomycetemcomitans growth inhibition. The conditions noted are these: Aggregatibacter actinomycetemcomitans; final concentration 15 μg/ml. The procedure: [The procedure below names another organism; the source lists this organism under the same test.] as §1

Drawing on patent publication US20110098495A1, “Compositions and methods of omega polyunsaturated fatty acids for the treatment of oral diseases” (priority 2009, published 2011), this text covers IC50 and inhibition for 5 compounds.

Structures are written as SMILES. In brackets after ≈: the same amount, converted by molar mass.

In general, IC50 refers to the concentration at which inhibition is half-maximal. The inhibition is the drop in the measured response relative to a control, in per cent. A lower inhibition goes with a response near the control.

Regarding `CCCCC/C=C\C/C=C\C/C=C\C/C=C\CCCC(=O)O` [ARA, arachidonic acid], the IC50 with Streptococcus mutans was around 5 µg/mL (≈ 16.4 µM). The compound further displayed an inhibition at 25 µg/mL in the test on Candida albicans of 50%. For the same compound, the inhibition at 15 µg/mL in test [1] stood at 50%.

For `CC/C=C\C/C=C\C/C=C\C/C=C\C/C=C\C/C=C\CCC(=O)O` [DHA, docosahexaenoic acid], the inhibition at 25 µg/mL in the test with Candida albicans came out at 50%. In test [1], the inhibition at 15 µg/mL worked out at 50%.

Consider `CCCCC/C=C\C/C=C\C/C=C\CCCCC(=O)O` [GLA, γ-linolenic acid], for which the half-inhibitory concentration (IC50) with Streptococcus mutans was around 5 µg/mL (≈ 18 µM).

Turning to `CC/C=C\C/C=C\C/C=C\C/C=C\C/C=C\CCCC(=O)O` [EPA, eicosapentaenoic acid], in the test on Candida albicans, at 25 µg/mL the inhibition was 50%. The compound further came in with an inhibition at 15 µg/mL in test [1] of 50%.

In the case of `CC/C=C\C/C=C\C/C=C\CCCCCCCC(=O)O` [ALA, α-linolenic acid], 25 µg/mL produced 50% inhibition in the test with Candida albicans. This compound also displayed an inhibition at 15 µg/mL in test [1] of 50%.
